Experimental data taken from US20230212519A1, “METHOD FOR PURIFYING CARDIOMYOCYTES” (ORIZURU THERAPEUTICS, INC., priority 2020, published 2023).

Tested on: embryoid body containing mixture of cardiomyocytes and non-cardiomyocytes
Assay: Sarcomeric α-actinin-positive cell rate by flow cytometer after treatment of embryoid body with compound
Assay type: cell-based, human
Settings: Experimental Example 4; clinical iPS cell line; embryoid body treated from day 20 for 4 days; FK-228 1-30 nM, Entinostat 0.1-10 μM
Description: On day 20, the embryoid body was recovered in a centrifugal tube, stood until a sediment of the embryoid body was formed, and the supernatant was aspirated while avoiding sucking the embryoid body. The medium was changed with a fresh 13 medium (same medium for myocardial differentiation as in Experimental Example 1), and divided into a 6-well plate with a medium amount of 3 mL/well so that an equal amount of the embryoid body would be placed in each well. Thereafter, an evaluation compound (1 nM to 10 μM) described in Table 1 or DMSO (0.1%) was added. […] It was centrifuged at 500 g for 1 min. The supernatant was removed, a solution of 500 μL of IMDM added with DNase 10 μg/mL and Liberase 100 μg/mL was added per one tube, and the mixture was stood at 37° C. under general oxygen conditions for 1 hr. […] The fixed cells were stained with an anti-sarcomeric α-actinin antibody, and the expression of sarcomeric α-actinin was analyzed with a flow cytometer. […]
On day 20, the embryoid body was recovered in a centrifugal tube, stood until a sediment of the embryoid body was formed, and the supernatant was aspirated while avoiding sucking the embryoid body. […] The fixed cells were stained with an anti-sarcomeric α-actinin antibody, and the sarcomeric α-actinin-positive cell rate was measured by analyzing the expression of sarcomeric α-actinin with a flow cytometer. […]

In the case of `Nc1ccccc1NC(=O)c1ccc(CNC(=O)OCc2cccnc2)cc1` [Entinostat], the “cardiomyocyte rate (sarcomeric α-actinin-positive cell rate)” value is reported as “improved”.
